# Tests used:
# Assay type in all cases: functional
# Staphylococcus aureus = assay: Antibacterial activity against Staphylococcus aureus 26003 by CLSI agar microdilution method
# Streptococcus pneumoniae = assay: Antibacterial activity against Streptococcus pneumoniae 31002 by CLSI agar microdilution method
# Staphylococcus = assay: Antibacterial activity against Staphylococcus albus 26101 by CLSI agar microdilution method
# Enterococcus faecium = assay: Antibacterial activity against Enterococcus faecium 32220 by CLSI agar microdilution method
# Streptococcus = assay: Antibacterial activity against Streptococcus gamma 32206 by CLSI agar microdilution method
# [1] = test system: Staphylococcus epidermidis; assay: Antibacterial activity against Staphylococcus epidermidis 26069 by CLSI agar microdilution method
Compound,MIC (Staphylococcus aureus) [µg/mL],MIC (Streptococcus pneumoniae) [µg/mL],MIC (Staphylococcus) [µg/mL],MIC (Enterococcus faecium) [µg/mL],MIC (Streptococcus) [µg/mL],MIC [1] [µg/mL]
CCCCCCCCCN[C@@]1(C)C[C@H](O[C@H]2[C@H](Oc3c4cc5cc3Oc3ccc(cc3Cl)[C@@H](O[C@H]3C[C@](C)(N)[C@H](O)[C@H](C)O3)[C@@H]3NC(=O)[C@H](NC(=O)[C@@H]5NC(=O)[C@H](CC(N)=O)NC(=O)[C@H](NC(=O)[C@@H](CC(C)C)NC)[C@H](O)c5ccc(c(Cl)c5)O4)c4ccc(O)c(c4)-c4c(O)cc(O)cc4[C@H](C(=O)O)NC3=O)O[C@H](CO)[C@@H](O)[C@@H]2O)O[C@@H](C)[C@H]1O,3.13,1.56,6.25,> 25,1.56,> 25
CN[C@H](CC(C)C)C(=O)N[C@H]1C(=O)N[C@@H](CC(N)=O)C(=O)N[C@H]2C(=O)N[C@H]3C(=O)N[C@H](C(=O)N[C@@H](C(=O)O)c4cc(O)cc(O)c4-c4cc3ccc4O)[C@H](O[C@H]3C[C@](C)(N)[C@H](O)[C@H](C)O3)c3ccc(c(Cl)c3)Oc3cc2cc(c3O[C@@H]2O[C@H](CO)[C@@H](O)[C@H](O)[C@H]2O[C@H]2C[C@](C)(NCc3ccc(Cl)cc3Cl)[C@H](O)[C@H](C)O2)Oc2ccc(cc2Cl)[C@H]1O,3.13,3.13,3.13,1.56,1.56,25
CN[C@H](CC(C)C)C(=O)N[C@H]1C(=O)N[C@@H](CC(N)=O)C(=O)N[C@H]2C(=O)N[C@H]3C(=O)N[C@H](C(=O)N[C@@H](C(=O)O)c4cc(O)cc(O)c4-c4cc3ccc4O)[C@H](O[C@H]3C[C@](C)(N)[C@H](O)[C@H](C)O3)c3ccc(c(Cl)c3)Oc3cc2cc(c3O[C@@H]2O[C@H](CO)[C@@H](O)[C@H](O)[C@H]2O[C@H]2C[C@](C)(NCc3ccc(Oc4ccc(OC)cc4)cc3)[C@H](O)[C@H](C)O2)Oc2ccc(cc2Cl)[C@H]1O,1.56,1.56,3.13,1.56,1.56,> 25
CN[C@H](CC(C)C)C(=O)N[C@H]1C(=O)N[C@@H](CC(N)=O)C(=O)N[C@H]2C(=O)N[C@H]3C(=O)N[C@H](C(=O)N[C@@H](C(=O)O)c4cc(O)cc(O)c4-c4cc3ccc4O)[C@H](O[C@H]3C[C@](C)(N)[C@H](O)[C@H](C)O3)c3ccc(c(Cl)c3)Oc3cc2cc(c3O[C@@H]2O[C@H](CO)[C@@H](O)[C@H](O)[C@H]2O[C@H]2C[C@](C)(NCc3cccc(Cl)c3)[C@H](O)[C@H](C)O2)Oc2ccc(cc2Cl)[C@H]1O,1.56,0.78,1.56,1.56,0.78,> 25
CCCCCCN[C@@]1(C)C[C@H](O[C@H]2[C@H](Oc3c4cc5cc3Oc3ccc(cc3Cl)[C@@H](O[C@H]3C[C@](C)(N)[C@H](O)[C@H](C)O3)[C@@H]3NC(=O)[C@H](NC(=O)[C@@H]5NC(=O)[C@H](CC(N)=O)NC(=O)[C@H](NC(=O)[C@@H](CC(C)C)NC)[C@H](O)c5ccc(c(Cl)c5)O4)c4ccc(O)c(c4)-c4c(O)cc(O)cc4[C@H](C(=O)O)NC3=O)O[C@H](CO)[C@@H](O)[C@@H]2O)O[C@@H](C)[C@H]1O,1.56,0.78,3.13,> 25,1.56,> 25
CN[C@H](CC(C)C)C(=O)N[C@H]1C(=O)N[C@@H](CC(N)=O)C(=O)N[C@H]2C(=O)N[C@H]3C(=O)N[C@H](C(=O)N[C@@H](C(=O)O)c4cc(O)cc(O)c4-c4cc3ccc4O)[C@H](O[C@H]3C[C@](C)(N)[C@H](O)[C@H](C)O3)c3ccc(c(Cl)c3)Oc3cc2cc(c3O[C@@H]2O[C@H](CO)[C@@H](O)[C@H](O)[C@H]2O[C@H]2C[C@](C)(NCc3ccc(-c4ccc(Cl)cc4)cc3)[C@H](O)[C@H](C)O2)Oc2ccc(cc2Cl)[C@H]1O,6.25,3.13,3.13,6.25,3.13,6.25
CN[C@H](CC(C)C)C(=O)N[C@H]1C(=O)N[C@@H](CC(N)=O)C(=O)N[C@H]2C(=O)N[C@H]3C(=O)N[C@H](C(=O)N[C@@H](C(=O)O)c4cc(O)cc(O)c4-c4cc3ccc4O)[C@H](O[C@H]3C[C@](C)(N)[C@H](O)[C@H](C)O3)c3ccc(c(Cl)c3)Oc3cc2cc(c3O[C@@H]2O[C@H](CO)[C@@H](O)[C@H](O)[C@H]2O[C@H]2C[C@](C)(NCc3ccc(Sc4ccccc4)cc3)[C@H](O)[C@H](C)O2)Oc2ccc(cc2Cl)[C@H]1O,3.13,3.13,3.13,3.13,3.13,> 25
CCCCCCCCN[C@@]1(C)C[C@H](O[C@H]2[C@H](Oc3c4cc5cc3Oc3ccc(cc3Cl)[C@@H](O[C@H]3C[C@](C)(N)[C@H](O)[C@H](C)O3)[C@@H]3NC(=O)[C@H](NC(=O)[C@@H]5NC(=O)[C@H](CC(N)=O)NC(=O)[C@H](NC(=O)[C@@H](CC(C)C)NC)[C@H](O)c5ccc(c(Cl)c5)O4)c4ccc(O)c(c4)-c4c(O)cc(O)cc4[C@H](C(=O)O)NC3=O)O[C@H](CO)[C@@H](O)[C@@H]2O)O[C@@H](C)[C@H]1O,3.13,0.39,3.13,1.56,1.56,> 25
CN[C@H](CC(C)C)C(=O)N[C@H]1C(=O)N[C@@H](CC(N)=O)C(=O)N[C@H]2C(=O)N[C@H]3C(=O)N[C@H](C(=O)N[C@@H](C(=O)O)c4cc(O)cc(O)c4-c4cc3ccc4O)[C@H](O[C@H]3C[C@](C)(N)[C@H](O)[C@H](C)O3)c3ccc(c(Cl)c3)Oc3cc2cc(c3O[C@@H]2O[C@H](CO)[C@@H](O)[C@H](O)[C@H]2O[C@H]2C[C@](C)(NCc3cc(F)c(F)cc3F)[C@H](O)[C@H](C)O2)Oc2ccc(cc2Cl)[C@H]1O,1.56,1.56,3.13,1.56,12.5,12.5
CCCCCN[C@@]1(C)C[C@H](O[C@H]2[C@H](Oc3c4cc5cc3Oc3ccc(cc3Cl)[C@@H](O[C@H]3C[C@](C)(N)[C@H](O)[C@H](C)O3)[C@@H]3NC(=O)[C@H](NC(=O)[C@@H]5NC(=O)[C@H](CC(N)=O)NC(=O)[C@H](NC(=O)[C@@H](CC(C)C)NC)[C@H](O)c5ccc(c(Cl)c5)O4)c4ccc(O)c(c4)-c4c(O)cc(O)cc4[C@H](C(=O)O)NC3=O)O[C@H](CO)[C@@H](O)[C@@H]2O)O[C@@H](C)[C@H]1O,1.56,0.39,3.13,> 25,0.78,> 25
CN[C@H](CC(C)C)C(=O)N[C@H]1C(=O)N[C@@H](CC(N)=O)C(=O)N[C@H]2C(=O)N[C@H]3C(=O)N[C@H](C(=O)N[C@@H](C(=O)O)c4cc(O)cc(O)c4-c4cc3ccc4O)[C@H](O[C@H]3C[C@](C)(N)[C@H](O)[C@H](C)O3)c3ccc(c(Cl)c3)Oc3cc2cc(c3O[C@@H]2O[C@H](CO)[C@@H](O)[C@H](O)[C@H]2O[C@H]2C[C@](C)(NCc3ccc(Cl)c(Cl)c3)[C@H](O)[C@H](C)O2)Oc2ccc(cc2Cl)[C@H]1O,3.13,0.78,3.13,6.25,0.78,> 25
